Laboratory results from PubChem BioAssay (NCI).
“And” between values parts separate entries of the source, which are not always exact repeats. Equal entries are not always repeated.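 Cultured in 96-well plates, cells were exposed to test compound for 48 hours across five concentrations. Here, GI50 denotes the concentration required for 50% inhibition of growth. At the TGI there is no net growth.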 The source made the active and inactive calls. Cut-off read from the data, not from the text of the source: active = GI50 below about 0.43 µM; inactive = the rest.

Experiments:
Experiment in all cases: NCI anticancer screen, dose series, 48 h
SW-620 colon = system: SW-620 colon
SF-539 CNS = system: SF-539 CNS
MDA-MB-231 breast = system: MDA-MB-231 breast
HCT-15 colon = system: HCT-15 colon
CCRF-CEM leukemia = system: CCRF-CEM leukemia
NCI-H460 lung = system: NCI-H460 lung
PC-3 prostate = system: PC-3 prostate
UO-31 renal = system: UO-31 renal
NCI-H226 lung = system: NCI-H226 lung

SMILES	TGI (SW-620 colon) [µM]	TGI (SF-539 CNS) [µM]	TGI (MDA-MB-231 breast) [µM]	TGI (HCT-15 colon) [µM]	TGI (CCRF-CEM leukemia) [µM]	TGI (NCI-H460 lung) [µM]	TGI (PC-3 prostate) [µM]	TGI (UO-31 renal) [µM]	TGI (NCI-H226 lung) [µM]	GI50 (UO-31 renal)	outcome (SF-539 CNS)
CCOC(=O)C1CCC(=O)N1C(=O)c1ccccc1 (stereo unspecified)	> 100	> 100	> 100	> 100	> 100	> 100	> 100	> 100	> 100	–	–
O=C(N/N=C/c1ccc(Br)cc1)N/N=C/c1ccc(Br)cc1	30.7	–	16.2	> 100	31	–	> 100	30.5	22.9	–	–
CC12CCCC3(CC(=O)C(C)(C)C3C(=O)C1)C2 (stereo unspecified)	> 100	–	–	> 100	> 100	> 100	> 100	> 100	> 100	–	–
CN(C)CCC(=O)/C=C\c1ccccc1	35.8	30.7	–	30.9	25	37.5	–	34	49.3	–	–
CC(=O)OCc1c(O)c2c(c(O)c1COC(C)=O)C(=O)C=CC2=O	14.3	35.7	–	38.1	13.7	–	–	29	32.5	–	–
C=C1C(O)CC[C@]2(C)C1C1OC(C)(C)O[C@]13CC(=O)C(C)=C([C@H]1OC(C)(C)OC12)C3(C)C (stereo partly specified)	> 100	> 100	> 100	> 100	> 100	> 100	–	> 100	> 100	–	–
CCOC(=O)c1nc2cc(C(F)(F)F)ccc2nc1Nc1ccc(C(=O)NC(C(=O)OCC)C(=O)OCC)cc1	> 100	–	50.4	> 100	> 100	> 100	> 100	91.9	34.8	–	–
CCCSc1nc(-c2ccc(OC)cc2)c(C#N)c(=O)n1C1OC(COC(C)=O)C(OC(C)=O)C(OC(C)=O)C1OC(C)=O (stereo unspecified)	–	> 100	–	–	> 100	> 100	–	> 100	–	> 100 µM and 36.9 µM	–
C1=C\SS/C=C\SS/1	> 100	–	–	34	7.09	80	> 100	> 100	> 100	–	–
CCCCn1c(-c2ccc([N+](=O)[O-])cc2)cs/c1=N/N=C1\C(=O)Nc2ccc(Br)cc21	> 100	28	32.7	> 100	> 100	38.3	–	34.2	38.3	–	–
c1c2c(cc(-n3nnc4c3CCCCCC4)c1-n1nnc3c1CCCCCC3)CCCCCC2	27.4	–	–	19	27.3	18.9	–	18.9	41.6	–	inactive
CCC(C(=O)C(=O)OC)P1(=O)OC(C)(C)CN1C(C)(C)C (stereo unspecified)	> 100	> 100	> 100	> 100	–	> 100	> 100	> 100	> 100	–	–
O=c1[nH]c(Nc2cccc(CO)c2)nc2nc[nH]c12	> 100	> 100	> 100	> 100	> 100	–	> 100	> 100	> 100	–	–
COc1nc(C#CC(C)(C)C)nc(OC)n1	73.3	83.1	59.8	61.5	–	> 100	> 100	> 100	–	–	–
CC(=O)OC1CCC2C3CCc4c(C)ccc(OS(=O)(=O)c5ccccc5)c4C3CCC12C (stereo unspecified)	> 100	–	> 100	> 100	> 100	> 100	> 100	50.1	> 100	–	–
CC(=O)c1cnc2oc3ccc(O)cc3c2c1-c1ccccc1	> 100	46.2	> 100	> 100	> 100	> 100	> 100	–	> 100	–	–
O=C(c1ccncc1)C1C(=O)c2ccccc2C1C1(O)c2ccccc2CC1C(O)c1ccncc1 (stereo unspecified)	> 100	> 100	> 100	> 100	–	> 100	–	29	> 100	–	–
Cc1c2c(OCC3CCCCO3)nn(C)c(=O)c2c(C)n1-c1ccccc1 (stereo unspecified)	–	37.2	32.2	33.4	–	30.9	36	31.2	42.7	–	–
CCCCCCCCCc1nn2c(Cc3ccccc3)nnc2s1	33.5	33.4	54.5	35.4	–	39.2	51	25.8	–	–	–
NS(=O)(=O)c1cccc(NC(=S)NC(=O)Nc2ccc(Cl)c(Cl)c2)c1	37.9	38.1	38.5	33.6	78.1	44.6	41.2	37.8	–	–	–
N#Cc1c(-c2ccccc2)cc(-c2ccc(Cl)cc2)[nH]c1=S	> 100	–	67.3	> 100	86	> 100	> 100	> 100	80.5	–	–
Cc1ccc(C2=CC(=O)/C(=C\C(=O)c3ccc(Cl)cc3)O2)cc1	6.95	55.1	25.1	35.3	> 100	–	12.2	21.4	40	–	–
CN(C)CCNC(=O)c1cccc2nc(-c3ccccc3)oc12	> 100	> 100	–	> 100	> 100	> 100	–	45.1	84	–	–
COCCOCCOC1=CC(=O)c2c(O)ccc(O)c2C1=O	1.72	3.9	2.83	–	4.48	3.47	6.73	3.02	3.88	–	–
O=c1[nH]c(=O)n(C2CC(O)C(CO)O2)cc1OCc1ccccc1 (stereo unspecified)	–	–	> 100	> 100	> 100	> 100	> 100	> 100	> 100	–	–
COc1ccc(-c2cc(-c3ccccc3)[nH]c(=S)c2C#N)cc1	> 100	–	> 100	> 100	> 100	81.7	> 100	45.7	96.2	–	–
COc1ccc(NC(=S)NC(=O)c2ccc3c(c2)Sc2ccccc2O3)c([N+](=O)[O-])c1	–	> 100	62.8	> 100	> 100	> 100	> 100	57.4	> 100	–	–
